Laboratory results reported in PubChem BioAssay AID1626 (SRMLSC, 2009).

Test system: M. tuberculosis H37Rv growth inhibition
Assay: M. tuberculosis H37Rv growth inhibitors, H37Rv strain (AID 1626)
Settings: for IC90: measured here: IC90 against H37Rv; for CC50: measured here: Vero cell cytotoxicity

Cn1c(O)c(C(=Nc2ccccc2)SCc2ccccc2Cl)c(=O)n(C)c1=O
IC50: 2.23 µM
IC90: 2.76 µM
CC50: 22.7 µM

CCOC(=O)c1cnc(-n2nc(C)cc2C)nc1Nc1ccc(N(C)C)cc1
IC50: < 0.195 µM
IC90: < 0.195 µM
CC50: 23.9 µM

CC(=O)NC(=O)c1ccc(-c2ccc(Cl)cc2)o1
IC50: 11.3 µM
IC90: > 100 µM

CN(C)CCNC=C(C(=O)Nc1ccc(Cl)cc1Cl)C(=O)Nc1ccc(Cl)cc1Cl
IC50: 2.45 µM
IC90: 3.44 µM
CC50: 18.1 µM

CC(C)(C)c1ccc(-c2nc(NCc3cccnc3)c3ccccc3n2)cc1
IC50: 4.81 µM
IC90: 7.46 µM
CC50: > 40 µM

Nc1nc(CCl)nc(Nc2ccccc2)n1
IC50: 31.2 µM
IC90: > 100 µM
CC50: 3.32 µM

Cc1[nH][nH]c(=O)c1C(c1ccc(-c2ccc(Cl)cc2)o1)c1c(C)[nH][nH]c1=O
IC50: 3.69 µM
IC90: 17 µM
CC50: > 40 µM

N#CCC1c2ccccc2CCN1C(=O)Nc1ccc(C(F)(F)F)cc1 (stereo not drawn)
IC50: 5.9 µM
IC90: > 100 µM

CCOC(=O)c1cccc(NC(=O)CCc2nc(-c3ccc(C)cc3)no2)c1
IC50: 30.1 µM
IC90: > 100 µM

Cc1ccc(C(C(=O)Nc2ccc3c(c2)OCO3)N(C)C(=O)/C=C\c2ccc3c(c2)OCO3)cc1 (stereo not drawn)
IC50: 45.5 µM
IC90: > 100 µM

Cc1ccccc1Nc1c(-c2ccccn2)nc2c(C)cccn12
IC50: 20.5 µM
IC90: > 100 µM
CC50: 29 µM

Cc1cccc(Oc2ccc(N)cc2)c1
IC90: > 100 µM

COc1cnc(-c2ccccn2)nc1Sc1ccc(C)cc1
IC50: < 0.195 µM
IC90: 2.92 µM
CC50: 4.24 µM

COc1ccc2nc(N=Nc3ccc(O)c4ccccc34)sc2c1
IC50: 5.17 µM
IC90: 10.1 µM
CC50: 4.6 µM

Cc1[nH]c2ccccc2c1C(=O)COC(=O)c1ccc([N+](=O)[O-])s1
CC50: 31.8 µM

CC1(C)CC(=O)C(C=Nc2ccc3c(c2)OCO3)=C(O)C1
IC90: > 100 µM

O=C(COC(=O)c1ccccc1Br)NCCC1=CCCCC1
IC50: 17.6 µM
IC90: > 100 µM

Cc1sc(N)nc1-c1ccccc1
IC90: > 100 µM

O=C(NCc1nc(-c2ccc(C(F)(F)F)cc2)no1)Nc1cc(Cl)cc(Cl)c1
IC50: 5.74 µM
IC90: 10.6 µM
CC50: 12.6 µM

CCOc1ccc2nc(NC(=O)CSC3=NCCS3)sc2c1
IC90: > 100 µM

Cn1c(-c2ccccc2)c(C(=O)CCl)c2ccccc21
IC50: 1.69 µM
IC90: 4.57 µM
CC50: 4.07 µM

CCOC(=O)C1(CCc2ccccc2)CCN(Cc2ccccn2)CC1
IC50: 19.7 µM
IC90: > 100 µM

CC(C)(C)c1ccccc1OCCCCCn1ccnc1
IC50: 8.29 µM
IC90: 10.9 µM
CC50: > 40 µM

O=C(/C=C/c1ccccc1F)c1cccc([N+](=O)[O-])c1
IC50: 6.24 µM
IC90: 6.73 µM
CC50: > 40 µM

CCCc1cc(NCc2ccccn2)n2nc(C)c(-c3ccccc3)c2n1
IC50: 4.33 µM
IC90: 7.09 µM
CC50: > 40 µM

O=c1oc2ccccc2nc1/C=C(\O)c1ccccc1
IC50: 6.59 µM
IC90: > 100 µM

c1ccc2c(Nc3ccc4c(c3)OCCO4)c3c(nc2c1)CCCC3
IC50: 11.3 µM
IC90: 29.1 µM
CC50: > 40 µM

COc1ccc(C)cc1N=Nc1ccc(O)c2ncccc12
IC50: 31.8 µM
IC90: > 100 µM
CC50: 2.01 µM

CCOc1ccc(NC(=O)CSc2ccccc2N)cc1
IC90: > 100 µM

Cc1ccc(Cc2cnc(N3C(=N)SC(C)C3=O)s2)cc1 (stereo not drawn)
IC50: 3.58 µM
IC90: 18.1 µM
CC50: > 40 µM

CCN1CCN(Cc2ccc(NC(=O)c3ccc(C)c(NC(=O)c4cc(-c5ccc(Br)cc5)n[nH]4)c3)cc2C(F)(F)F)CC1
IC50: 2.16 µM
IC90: 2.85 µM
CC50: 13 µM

Cc1ccc(NC(=O)/C=C/c2ccc([N+](=O)[O-])s2)c(C)c1
IC50: 1.79 µM
IC90: 4.42 µM
CC50: 19.5 µM

Cc1cc(OCCCCCn2ccnc2)cc(C)c1Cl
IC50: 4.17 µM
IC90: 5.19 µM
CC50: 24.6 µM

O=c1cc(N=Nc2ccc(Cl)cc2)[nH]c(=O)[nH]1
IC50: 13 µM
IC90: 14.5 µM
CC50: 7.51 µM
